Source: paper PMC11040670, “Mechanistic and Kinetic Insights into Cellular Uptake of Biomimetic Dinitrosyl Iron Complexes and Intracellular Delivery of NO for Activation of Cytoprotective HO-1” (JACS Au, 2024)

Key:
MSC = assay: Whole-cell EPR: cellular uptake and intracellular formation/decomposition of mononuclear DNIC in MSC; assay type: cell-based, human; details: for tmax for cellular uptake and intracellular transformation (whole-cell EPR): normoxia, 100 μM DNIC–COOH or 2.5 μM DNIC–COOMe
Experimental: (§1) Cellular uptake of DNIC–COOH and intracellular formation/decomposition of mononuclear DNICs in MSC/N2a/HCEC cells were investigated using EPR spectroscopy. Briefly, cells were seeded into two (or one) 100 mm dish(es) at a density of 2 × 10^6 cells/dish and incubated at 37 °C overnight. On the next day, cells were treated with 100 μM of DNIC–COOH (or 100 μM of DNIC–COOH to N2a and 75 μM of DNIC–COOH to HCEC) and incubated for 0, 0.5, 1, 2, 3, 4, 8, and 24 h, respectively. After removal of the supernatant solution, cells were washed with DPBS before addition of 1 mL of trypsin (0.05%)/EDTA (0.53 mM) and incubation for 5 min at 37 °C. After the obtained cell suspension solutions from two 100 mm dishes were combined and centrifuged at 100g for 5 min, the supernatant was removed before addition of 100 μL of αMEM to DNIC-treated MSC (or MEM to DNIC-treated N2a and HSFM to DNIC-treated HCEC). This solution was then transferred into EPR quartz tube and frozen in N2(l) before the EPR measurements. For each measured EPR spectrum, double integration was executed to obtain the integrated EPR intensity under each condition. Moreover, time-dependent decay of integrated EPR signal intensity after treatment of DNIC–COOH was fit to pseudo-first-order kinetics in order to determine the intracellular half-life for EPR-active mononuclear DNIC. Three independent experiments were executed to measure the average half-life for intracellular decomposition of EPR-active mononuclear DNIC after treatment with DNIC–COOH at 37 °C. On the other hand, at the time point with maximum integrated EPR signal intensity, spin quantitation of intracellular EPR-active DNICs was performed using mononuclear DNIC [PPN][(NO)2Fe(S5)] as a standard according to the methodology used in the previous work.[50] Cellular uptake of DNIC–COOMe (2.5 μM to MSC, 10 μM to N2a, or 1 μM to HCEC) and intracellular formation/decomposition of EPR-active mononuclear DNICs were investigated using EPR spectroscopy in a similar manner.
(§2) Studies of cellular uptake mechanisms were investigated using EPR spectroscopy in combination with pretreatments of alternative inhibitors. After the MSC cells were seeded into two (or one) 100 mm dish(es) at a density of 2 × 10^6 cells/dish and incubated at 37 °C overnight, sequential treatments of 50 μM of NEM for 0.5 h and 100 μM of DNIC–COOH for 2 h were performed before the treated MSC cells were collected for EPR measurement following the procedure described above. […]

N2a = assay: Whole-cell EPR: cellular uptake and intracellular formation/decomposition of mononuclear DNIC in N2a; assay type: cell-based, mouse; details: for tmax for cellular uptake and intracellular transformation (whole-cell EPR): normoxia, 100 μM DNIC–COOH or 10 μM DNIC–COOMe
Experimental: as §1, §2

HMOX1 gene = assay: Real-time PCR of HMOX1 gene in MSC; assay type: cell-based, human; details: at 3 h, 100 μM DNIC–COOH or 2.5 μM DNIC–COOMe
Experimental: After treatment of (1) 100 μM of DNIC–COOH to MSC, (2) 100 μM of DNIC–COOH to N2a, (3) 75 μM of DNIC–COOH to HCEC, (4) 2.5 μM of DNIC–COOMe to MSC, (5) 10 μM of DNIC–COOMe to N2a, and (6) 1 μM of DNIC–COOMe to HCEC, respectively, the total RNA of the treated cells was extracted using TRIzol Reagent (Thermo Fisher Scientific) in order to assess the time-dependent change in the mRNA level of HO-1. After the synthesis of complementary DNA with the High-Capacity Reverse Transcription Kit, qPCR was conducted using Power SYBR Green PCR Master Mix with the StepOnePlus Real-Time PCR System (Thermo Fisher Scientific). […] The relative mRNA levels of target genes were determined by a comparative threshold cycle method and normalized to that of RPL13A (or GAPDH). The mRNA level of HO-1 in the MSC, N2a, and HCEC cells, respectively, that received the (1) sequential treatments of 1H-[1,2,4]oxadiazolo-[4,3-a]quinoxalin-1-one (ODQ, 10 μM for 1 h) and DNIC–COOH (100 μM in MSC for 3 h, 100 μM in N2a for 10 h, and 75 μM in HCEC for 6 h) or (2) cotreatment of 2-phenyl-4,4,5,5-tetramethylimidazoline-1-oxyl-3-oxide (PTIO, 100 μM in MSC, 200 μM in N2a, and 100 μM in HCEC) and DNIC–COOH (100 μM in MSC for 3 h, 100 μM in N2a for 10 h, and 75 μM in HCEC for 6 h) was also evaluated under a similar procedure.

SMILES	relative whole-cell EPR signal intensity at gav = 2.03 (control = 100%) (MSC; MSC, native FBS replaced with 20% NEM-treated FBS) [%]	tmax for cellular uptake and intracellular transformation (whole-cell EPR) (MSC; MSC) [h]	relative whole-cell EPR signal intensity at gav = 2.03 (control = 100%) (MSC; MSC, pretreatment of NEM 0.5 h, then DNIC–COOMe 0.5 h, reduction) [%]	relative whole-cell EPR signal intensity at gav = 2.03 (control = 100%) (N2a; N2a, native FBS replaced with 5% NEM-treated FBS) [%]	tmax for cellular uptake and intracellular transformation (whole-cell EPR) (N2a; N2a) [h]	relative whole-cell EPR signal intensity at gav = 2.03 (control = 100%) (N2a; N2a, pretreatment of NEM 0.5 h, then DNIC–COOMe 0.5 h, reduction) [%]	activation of HMOX1 gene (HMOX1 gene) [fold]	relative whole-cell EPR signal intensity at gav = 2.03 (control = 100%) (MSC; CPZ-treated MSC) [%]	relative whole-cell EPR signal intensity at gav = 2.03 (control = 100%) (N2a; CPZ-treated N2a) [%]	relative whole-cell EPR signal intensity at gav = 2.03 (control = 100%) (N2a; MβCD-treated N2a) [%]
COC(=O)CC[SH]1[Fe]([N]=O)([N]=O)[SH](CCC(=O)OC)[Fe]1([N]=O)[N]=O (stereo not shown) [DNIC–COOMe, [(NO)2Fe(μ-SCH2CH2COOCH3)2Fe(NO)2]]	172.4 ± 24.1	0.5	29.7 ± 16.3	116.2 ± 33.6	0.5	20.1 ± 9.7	18.8 ± 2.3			
O=[N][Fe]1([N]=O)[SH](CCC(=O)O)[Fe]([N]=O)([N]=O)[SH]1CCC(=O)O (stereo not shown) [DNIC–COOH, [(NO)2Fe(μ-SCH2CH2COOH)2Fe(NO)2]]		2			2		49.5 ± 2.9	84.2 ± 11.0	77.6 ± 22.5	81.7 ± 18.2
